Reference: US20110144160A1, “Antagonists of Prostaglandin D2 Receptors” (Amira Pharmaceuticals, Inc., priority 2008, published 2011)

The compounds below were run against T1, human DP2 receptor (Homo sapiens, UniProt Q9Y5Y4) (assay: DP2/CRTH2 binding assay ([3H]PGD2 radioligand)). Details: membranes of HEK293 cells expressing recombinant human DP2, 1 nM [3H]PGD2; read-out: hDP2.
T1 construct: expressed in transfected cells
T1 sequence (Q9Y5Y4 1-395): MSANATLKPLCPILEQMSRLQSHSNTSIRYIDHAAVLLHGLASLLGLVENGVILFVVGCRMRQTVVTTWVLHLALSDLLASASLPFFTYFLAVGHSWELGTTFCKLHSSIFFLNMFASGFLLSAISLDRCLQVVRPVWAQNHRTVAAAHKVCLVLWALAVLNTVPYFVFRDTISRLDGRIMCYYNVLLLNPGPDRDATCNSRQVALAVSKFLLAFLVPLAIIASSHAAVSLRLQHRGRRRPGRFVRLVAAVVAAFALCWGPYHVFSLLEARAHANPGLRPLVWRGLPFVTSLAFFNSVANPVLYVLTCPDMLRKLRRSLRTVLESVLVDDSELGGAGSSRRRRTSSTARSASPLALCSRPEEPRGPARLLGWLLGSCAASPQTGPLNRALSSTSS
Experimental: The ability of a compound to bind to the human DP2 receptor is assessed via a radioligand binding assay using [^3H]PGD2. HEK293 cells stably expressing recombinant human DP2 are resuspended in 10 mM Hepes, 7.4 containing 1 mM DTT, lysed and centrifuged at 75,000×g to pellet the membranes. The membranes are resuspended in 10 mM Hepes, 7.4 containing 1 mM DTT and 10% glycerol to approximately 5 mg protein/ml. Membranes (2-10 μg protein/well) are incubated in 96-well plates with 1 nM [^3H]PGD2 and test compound in Assay Buffer (50 mM Hepes, 10 mM MnCl2, 1 mM EDTA, plus or minus 0.2% human serum albumin, pH 7.4) for 60 minutes at room temperature. The reactions are terminated by rapid filtration through Whatman GF/C glass fibre filter plates. The filter plates were pre-soaked in 0.33% polythylenimine for 30 minutes at room temperature then washed in Wash Buffer (50 mM Hepes, 0.5 M NaCl pH 7.4) prior to harvesting. After harvesting, the filter plates are washed 3 times with 1 ml cold Wash Buffer then dried. Scintillant is then added to the plates and the radioactivity retained on the filters is determined on a Packard TopCount (Perkin Elmer). Specific binding is determined as total radioactive binding minus non-specific binding in the presence of 10 μM PGD2. IC50s were determined using GraphPad prism analysis of drug titration curves.

Question: With `COc1ccc(CC(=O)O)cc1Oc1ccc(NC(=O)c2ccc(Cl)cc2)cc1CSCC(F)(F)F` [Compound 1, {3-[4-(4-Chloro-benzoylamino)-2-(2,2,2-trifluoro-ethylsulfanylmethyl)-phenoxy]-4-methoxy-phenyl}-acetic acid] as the compound, how does the IC50 read?
Answer: The IC50 was under 300 nM.

Question: For `COc1ccc(CC(=O)O)cc1Oc1ccc(NC(=O)C(C)(C)C)cc1CSCC(F)(F)F` [Compound 2, {3-[4-(2,2-dimethyl-propionylamino)-2-(2,2,2-trifluoro-ethylsulfanylmethyl)-phenoxy]-4-methoxy-phenyl}-acetic acid], which IC50 is on record?
Answer: The IC50 was under 300 nM.

Question: `COc1ccc(CC(=O)O)cc1Oc1ccc(NC(=O)C(C)(C)C)cc1CSC(C)(C)C` [Compound 7, {3-[2-tert-Butylsulfanylmethyl-4-(2,2-dimethyl-propionylamino)-phenoxy]-4-methoxy-phenyl}-acetic acid] was tested. Which IC50 did it give?
Answer: Its IC50 is under 300 nM.

Question: With `COc1ccc(CC(=O)O)cc1Oc1ccc(NC(=O)c2ccc(Cl)cc2)cc1CSc1ccccc1` [Compound 17, {3-[4-(4-Chloro-benzoylamino)-2-phenylsulfanylmethyl-phenoxy]-4-methoxy-phenyl}-acetic acid] as the compound, how does the IC50 read?
Answer: The IC50 was under 300 nM.

Question: `COc1ccc(CC(=O)O)cc1Oc1ccc(C(=O)NC(C)(C)C)cc1CSC(C)(C)C` [Compound 39, [3-(4-tert-Butylcarbamoyl-2-tert-butylsulfanylmethyl-phenoxy)-4-methoxy-phenyl]-acetic acid] was tested. Which IC50 did it give?
Answer: The IC50 was under 300 nM.

Question: `COc1ccc(CC(=O)O)cc1Oc1ccc(C(=O)NCC(=O)c2ccccc2)cc1CSC(C)(C)C` [Compound 40, {3-[2-tert-butylsulfanylmethyl-4-(2-oxo-2-phenyl-ethylcarbamoyl)-phenoxy]-4-methoxy-phenyl}-acetic acid] was tested. Which IC50 did it give?
Answer: The IC50 was under 300 nM.

Question: `COc1ccc(CC(=O)O)cc1Oc1ccc(C(=O)NC(C)(C)Cc2ccc(F)cc2)cc1CSC(C)(C)C` [Compound 41, (3-{2-tert-butylsulfanylmethyl-4-[2-(4-fluoro-phenyl)-1,1-dimethyl-ethylcarbamoyl]-phenoxy}-4-methoxy-phenyl)-acetic acid] was tested. Which IC50 did it give?
Answer: Its IC50 is under 300 nM.

Question: How did the IC50 turn out when `COc1ccc(CC(=O)O)cc1Oc1ccc(C(=O)N2CCCCC2)cc1CSC(C)(C)C` [Compound 42, {3-[2-tert-butylsulfanylmethyl-4-(piperidine-1-carbonyl)-phenoxy]-4-methoxy-phenyl}-acetic acid] was run?
Answer: The IC50 was over 1000 nM.

Question: Which IC50 does the source give for `COc1ccc(NC(=O)c2ccc(Oc3cc(CC(=O)O)ccc3OC)c(CSC(C)(C)C)c2)cn1` [Compound 43, {3-[2-tert-butylsulfanylmethyl-4-(6-methoxy-pyridin-3-ylcarbamoyl)-phenoxy]-4-methoxy-phenyl}-acetic acid] here?
Answer: Its IC50 is under 300 nM.

Question: How did the IC50 turn out when `COc1ccc(CC(=O)O)cc1Oc1ccc(C(=O)NCC(F)(F)F)cc1CSC(C)(C)C` [Compound 44, {3-[2-tert-butylsulfanylmethyl-4-(2,2,2-trifluoro-ethylcarbamoyl)-phenoxy]-4-methoxy-phenyl}-acetic acid] was run?
Answer: Its IC50 is under 300 nM.

Question: Which IC50 does the source give for `COc1ccc(CC(=O)O)cc1Oc1ccc(C(=O)N(C)C(C)C)cc1CSC(C)(C)C` [Compound 45, {3-[2-tert-butylsulfanylmethyl-4-(isopropyl-methyl-carbamoyl)-phenoxy]-4-methoxy-phenyl}-acetic acid] here?
Answer: The IC50 was over 1000 nM.

Question: With `COc1ccc(CC(=O)O)cc1Oc1ccc(C(=O)NCC(C)(C)C)cc1CSC(C)(C)C` [Compound 46, {3-[2-tert-butylsulfanylmethyl-4-(2,2-dimethyl-propylcarbamoyl)-phenoxy]-4-methoxy-phenyl}-acetic acid] as the compound, how does the IC50 read?
Answer: The IC50 was 300 to 1000 nM.

Question: For `CC(C)(C)SCc1cc(NC(=O)C(C)(C)C)ccc1Oc1cc(Cl)cc(CC(=O)O)c1` [Compound 47, {3-[2-tert-Butylsulfanylmethyl-4-(2,2-dimethyl-propionylamino)-phenoxy]-5-chloro-phenyl}-acetic acid], which IC50 is on record?
Answer: The IC50 was under 300 nM.

Question: With `CC(C)(C)C(=O)Nc1ccc(Oc2cc(Cl)cc(CC(=O)O)c2)c(CS(=O)(=O)C(C)(C)C)c1` [Compound 48, {3-Chloro-5-[4-(2,2-dimethyl-propionylamino)-2-(2-methyl-propane-2-sulfonylmethyl)-phenoxy]-phenyl}-acetic acid] as the compound, how does the IC50 read?
Answer: Its IC50 is under 300 nM.

Question: For `CC(C)(C)C(=O)Nc1ccc(Oc2cc(CC(=O)O)ccc2OC(F)F)c(CSCC(F)(F)F)c1` [Compound 49, {4-Difluoromethoxy-3-[4-(2,2-dimethyl-propionylamino)-2-(2,2,2-trifluoro-ethylsulfanylmethyl)-phenoxy]-phenyl}-acetic acid], which IC50 is on record?
Answer: The IC50 was under 300 nM.

Question: Which IC50 does the source give for `CC(C)(C)C(=O)Nc1ccc(Oc2cc(CC(=O)O)ccc2OC(F)F)c(CS(=O)(=O)CC(F)(F)F)c1` [Compound 50, {4-Difluoromethoxy-3-[4-(2,2-dimethyl-propionylamino)-2-(trifluoro-ethanesulfonylmethyl)-phenoxy]-phenyl}-acetic acid] here?
Answer: Its IC50 is under 300 nM.

Question: How did the IC50 turn out when `Cc1ccc(CC(=O)O)cc1Oc1ccc(NC(=O)C(C)(C)C)cc1CSCC(F)(F)F` [Compound 51, {3-[4-(2,2-Dimethyl-propionylamino)-2-(2,2,2-trifluoro-ethylsulfanylmethyl)-phenoxy]-4-methyl-phenyl}-acetic acid] was run?
Answer: Its IC50 is under 300 nM.

Question: `CC(C)SCc1cc(NC(=O)C(C)(C)C)ccc1Oc1cc(CC(=O)O)ccc1Cl` [Compound 52, {4-Chloro-3-[4-(2,2-dimethyl-propionylamino)-2-isopropylsulfanylmethyl-phenoxy]-phenyl}-acetic acid] was tested. Which IC50 did it give?
Answer: The IC50 was under 300 nM.

Question: How did the IC50 turn out when `CC(C)(C)C(=O)Nc1ccc(Oc2cc(CC(=O)O)ccc2Cl)c(CSCC(F)(F)F)c1` [Compound 53, {4-Chloro-3-[4-(2,2-dimethyl-propionylamino)-2-(2,2,2-trifluoro-ethylsulfanylmethyl)-phenoxy]-phenyl}-acetic acid] was run?
Answer: The IC50 was under 300 nM.

Question: `CC(C)SCc1cc(NC(=O)C(C)(C)C)ccc1Oc1cc(CC(=O)O)cc(C(F)(F)F)c1` [Compound 54, {3-[4-(2,2-Dimethyl-propionylamino)-2-isopropylsulfanylmethyl-phenoxy]-5-trifluoromethyl-phenyl}-acetic acid] was tested. Which IC50 did it give?
Answer: Its IC50 is under 300 nM.

Question: Which IC50 does the source give for `C=Cc1ccc(CC(=O)O)cc1Oc1ccc(NC(=O)C(C)(C)C)cc1CSCC(F)(F)F` [Compound 55, {3-[4-(2,2-Dimethyl-propionylamino)-2-(2,2,2-trifluoro-ethylsulfanylmethyl)-phenoxy]-4-vinyl-phenyl}-acetic acid] here?
Answer: Its IC50 is under 300 nM.

Question: `CCc1ccc(CC(=O)O)cc1Oc1ccc(NC(=O)C(C)(C)C)cc1CSCC(F)(F)F` [Compound 56, {3-[4-(2,2-Dimethyl-propionylamino)-2-(2,2,2-trifluoro-ethylsulfanylmethyl)-phenoxy]-4-ethyl-phenyl}-acetic acid] was tested. Which IC50 did it give?
Answer: The IC50 was under 300 nM.

Question: With `COc1ccc(CC(=O)O)cc1Oc1ccc(NS(=O)(=O)c2cccc3c(N(C)C)cccc23)cc1CSC(C)(C)C` [Compound 72, {3-[2-tert-butylsulfanylmethyl-4-(5-dimethylamino-naphthalene-1-sulfonylamino)-phenoxy]-4-methoxy-phenyl}-acetic acid] as the compound, how does the IC50 read?
Answer: The IC50 was 300 to 1000 nM.

Each compound was assayed against T2, human DP1 receptor (Homo sapiens, UniProt Q13258) (assay: DP1 binding assay ([3H]BWA868C radioligand)). Details: human platelet membranes, 2 nM [3H]BWA868C; read-out: hDP1.
T2 construct: tissue Biological Specialty Corporation; host or cells: human platelets, membrane preparation
T2 sequence (Q13258 1-359): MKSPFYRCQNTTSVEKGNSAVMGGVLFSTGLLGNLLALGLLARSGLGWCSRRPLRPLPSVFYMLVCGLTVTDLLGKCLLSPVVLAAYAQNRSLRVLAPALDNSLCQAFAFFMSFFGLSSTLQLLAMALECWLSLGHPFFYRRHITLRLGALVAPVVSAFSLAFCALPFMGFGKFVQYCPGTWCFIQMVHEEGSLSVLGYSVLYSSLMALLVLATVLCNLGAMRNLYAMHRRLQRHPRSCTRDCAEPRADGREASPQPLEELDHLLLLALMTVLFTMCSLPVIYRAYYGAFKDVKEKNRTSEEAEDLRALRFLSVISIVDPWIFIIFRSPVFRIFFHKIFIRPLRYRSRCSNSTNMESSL
Experimental: The ability of a compound to bind to the human DP1 receptor was evaluated via a radioligand membrane binding assay using the DP1 selective synthetic ligand [^3H]BWA868C. Packed human platelets (Biological Specialty Corporation), were resuspended in 6 volumes of Hepes/HBSS buffer (10 mM Hepes, 1 mM DTT in Hanks Balanced Salt Solution (HBSS), lysed and centrifuged at 75,000×g to pellet the membranes. Membranes were resuspended in Hepes/HBSS buffer to approximately 12 mg protein/ml. Membranes (20 μg protein/well) are incubated in 96-well plates with 2 nM [^3H]BWA868C and test compound in Assay Buffer (50 mM Hepes, 10 mM MnCl2, 1 mM EDTA, plus or minus 0.2% human serum albumin, pH 7.4) for 60 minutes at room temperature. The reactions are terminated by rapid filtration through Whatman GF/C glass fibre filter plates. The filter plates were pre-soaked in 0.33% polethylenimine for 30 minutes at room temperature then washed in Wash Buffer (50 mM Hepes, 0.5 M NaCl pH 7.4) prior to harvesting. After harvesting, the filter plates are washed 3 times with 1 ml cold Wash Buffer then dried. Scintillant is then added to the plates and the radioactivity retained on the filters is determined on a Packard TopCount (Perkin Elmer). Specific binding is determined as total radioactive binding minus non-specific binding in the presence of 10 μM BW A868C. IC50s were determined using GraphPad prism analysis of drug titration curves.

Question: `COc1ccc(CC(=O)O)cc1Oc1ccc(NC(=O)c2ccc(Cl)cc2)cc1CSCC(F)(F)F` [Compound 1, {3-[4-(4-Chloro-benzoylamino)-2-(2,2,2-trifluoro-ethylsulfanylmethyl)-phenoxy]-4-methoxy-phenyl}-acetic acid] was tested. Which IC50 did it give?
Answer: The IC50 was over 1000 nM.

Question: `COc1ccc(CC(=O)O)cc1Oc1ccc(NC(=O)C(C)(C)C)cc1CSCC(F)(F)F` [Compound 2, {3-[4-(2,2-dimethyl-propionylamino)-2-(2,2,2-trifluoro-ethylsulfanylmethyl)-phenoxy]-4-methoxy-phenyl}-acetic acid] was tested. Which IC50 did it give?
Answer: The IC50 was over 1000 nM.

Question: With `COc1ccc(CC(=O)O)cc1Oc1ccc(NC(=O)C(C)(C)C)cc1CSC(C)(C)C` [Compound 7, {3-[2-tert-Butylsulfanylmethyl-4-(2,2-dimethyl-propionylamino)-phenoxy]-4-methoxy-phenyl}-acetic acid] as the compound, how does the IC50 read?
Answer: The IC50 was over 1000 nM.

Question: For `COc1ccc(CC(=O)O)cc1Oc1ccc(NC(=O)c2ccc(Cl)cc2)cc1CSc1ccccc1` [Compound 17, {3-[4-(4-Chloro-benzoylamino)-2-phenylsulfanylmethyl-phenoxy]-4-methoxy-phenyl}-acetic acid], which IC50 is on record?
Answer: Its IC50 is over 1000 nM.
